We go through 36 compounds from patent publication US8053574B2, “Organic compounds” (Novartis AG, priority 2007, dated 2011).

One experiment deals with PI3K γ (Homo sapiens, UniProt P48736). Put plainly: PI3 kinase phosphorylation assay (Biological Method 1), Ki γ. In kind it is biochemical. The following applies: Table 1, compounds of formula X. The protocol: The compounds of the invention were synthesized according to the examples provided above. PI3K inhibitory (IC50) values of the compounds were determined according to Biological Method 1.
PI3K γ, sequence (P48736 whole entry): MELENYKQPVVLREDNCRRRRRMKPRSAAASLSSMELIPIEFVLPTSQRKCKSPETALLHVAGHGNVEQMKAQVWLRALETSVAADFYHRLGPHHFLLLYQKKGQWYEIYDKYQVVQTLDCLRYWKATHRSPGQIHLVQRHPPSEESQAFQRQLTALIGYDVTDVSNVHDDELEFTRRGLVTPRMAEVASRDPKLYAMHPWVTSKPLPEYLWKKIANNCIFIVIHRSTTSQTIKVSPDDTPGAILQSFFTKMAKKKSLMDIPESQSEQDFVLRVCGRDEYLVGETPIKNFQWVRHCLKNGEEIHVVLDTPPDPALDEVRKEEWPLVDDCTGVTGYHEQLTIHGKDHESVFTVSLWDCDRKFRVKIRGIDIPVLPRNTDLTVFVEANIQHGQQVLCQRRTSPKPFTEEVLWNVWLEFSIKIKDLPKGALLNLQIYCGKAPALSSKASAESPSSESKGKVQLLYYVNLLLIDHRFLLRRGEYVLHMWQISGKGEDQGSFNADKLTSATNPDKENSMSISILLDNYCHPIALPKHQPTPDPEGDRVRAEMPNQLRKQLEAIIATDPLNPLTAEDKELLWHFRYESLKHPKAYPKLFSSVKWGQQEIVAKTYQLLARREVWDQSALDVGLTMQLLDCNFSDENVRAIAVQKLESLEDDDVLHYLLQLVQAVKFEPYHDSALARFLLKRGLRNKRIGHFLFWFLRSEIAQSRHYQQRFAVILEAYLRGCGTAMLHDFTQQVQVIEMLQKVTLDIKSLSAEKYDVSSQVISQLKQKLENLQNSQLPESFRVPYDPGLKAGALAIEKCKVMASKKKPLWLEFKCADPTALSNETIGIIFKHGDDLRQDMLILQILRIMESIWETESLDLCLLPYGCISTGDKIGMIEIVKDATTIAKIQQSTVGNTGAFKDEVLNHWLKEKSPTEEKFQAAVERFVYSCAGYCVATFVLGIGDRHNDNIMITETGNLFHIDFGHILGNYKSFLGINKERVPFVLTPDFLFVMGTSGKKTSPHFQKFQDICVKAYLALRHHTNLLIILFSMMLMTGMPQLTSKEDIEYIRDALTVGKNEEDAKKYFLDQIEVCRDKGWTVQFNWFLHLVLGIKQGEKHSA
Assay 1: Homogenous Solution Phase Assay
Compounds to be tested are dissolved in DMSO and directly distributed into 384-well flashplates at 1.25 μL per well. To start the reaction, 20 μL of 6 nM PI3 kinase are added into each well followed by 20 μL of 400 nM ATP containing a trace of radiolabeled ATP and 900 nM 1-alpha-phosphatidylinositol (PI). The plates are briefly centrifuged to remove any air gap. The reaction is performed for 15 minutes and then stopped by the addition of 20 μL of 100 mM EDTA. The stopped reaction is incubated overnight at RT to allow the lipid substrate to bind by hydrophobic interaction to the surface of the flashplate. The liquid in the wells is then washed away, and the labeled substrate is detected with scintillation counting.
Assay 2: One Step Solid Phase Assay
This method is similar to Assay 1 except that the lipid substrate (1-alpha-phosphatidylinositol (PI)) is first dissolved in a coating buffer and incubated on flashplate at room temperature overnight to allow the lipid substrate to bind by hydrophobic interaction to the surface of the flashplate. Unbound substrate is then washed away. On the day of assay, 20 μL of 6 nM PI3 kinase are added into each well followed by 20 μL of 400 nM ATP containing trace of radiolabeled ATP. Compounds are added together with enzyme and ATP to the lipid-coated plates. The plates are briefly centrifuged to remove any air gap. The reaction is performed for two to three hours. The reaction is stopped by addition of 20 μL of 100 mM EDTA or by immediate plate washing. Phosphorylated lipid substrate is detected by scintillation counting.
Assay 3: ATP Depletion Assay
Compounds to be tested are dissolved in DMSO and directly distributed into a black 384-well plate at 1.25 μL per well. To start the reaction, 25 μL of 10 nM PI3 kinase and 5 μg/mL 1-alpha-phosphatidylinositol (PI) are added into each well followed by 25 μL of 2 μM ATP. The reaction is performed until approx 50% of the ATP is depleted, and then stopped by the addition of 25 μL of KinaseGlo solution. The stopped reaction is incubated for 5 minutes and the remaining ATP is then detected via luminescence.
For orientation: Ki means the dissociation constant of the complex between target and ligand, obtained from inhibition or displacement. Low values mean tighter binding, high ones weaker binding. As for `CCn1nnc(CCNC(=O)Nc2cn3cc(Br)ccc3n2)n1` [drawing 103], the Ki stood at 0.911 µM.
On to `CC(C)n1nnc(CCNC(=O)Nc2cn3cc(-c4ccccc4)ccc3n2)n1` [drawing 75], for which the Ki is 0.423 µM.
The same measure, in the same setting: as for `CCn1nnc(CCNC(=O)Nc2cn3cc(-c4cncc5ccccc45)ccc3n2)n1` [drawing 97], the figure is 0.158 µM; as for `COc1cccc(-c2ccc3nc(NC(=O)NCCc4nnn(C(C)C)n4)cn3c2)c1` [drawing 71], 1.03 µM.
On the same count and under the same terms, to `CCn1nnc(CCNC(=O)Nc2cn3cc(-c4cc(Cl)cc(OC)c4)ccc3n2)n1` belongs 0.204 µM; to `CC(C)(C)NC(=O)CCNC(=O)Nc1cn2cc(-c3cncc(OC4CCOCC4)c3)ccc2n1` [drawing 49], 0.397 µM.
On the same count and under the same terms, to `CC(C)(C)NC(=O)CCNC(=O)Nc1cn2cc(-c3cncc(-c4ccccc4)c3)ccc2n1` [drawing 43] belongs 0.207 µM; to `CC(C)n1nnc(CCNC(=O)Nc2cn3cc(-c4cccc(F)c4)ccc3n2)n1` [drawing 69], 0.836 µM.
`O=C(NCCc1nnn(CCF)n1)Nc1cn2cc(-c3cncc(C(F)(F)F)c3)ccc2n1` [drawing 83] showed a Ki of 0.002 µM.
On the same count and under the same terms, to `COc1ccc(-c2ccc3nc(NC(=O)NCCc4nnn(CCF)n4)cn3c2)cn1` [drawing 53] belongs 0.075 µM.
Consider `CCOc1cncc(-c2ccc3nc(NC(=O)NCCc4nnn(C(C)C)n4)cn3c2)c1` [drawing 25], for which the Ki is 0.048 µM.
On the same count and under the same terms, as for `COc1ccc(-c2ccc3nc(NC(=O)NCCc4nnn(C(C)C)n4)cn3c2)cn1` [drawing 51], the figure is 0.301 µM.

The experiment is the same for the next values; noted with them: Table 2, compounds of formula X.
`CCc1nnn(CCNC(=O)Nc2cn3cc(-c4cncc(C#N)c4)ccc3n2)n1` [Example 1-26, 1-[6-(5-Cyano-pyridin-3-yl)-imidazo[1,2-a]pyridin-2-yl]-3-[2-(5-ethyl-tetrazol-2-yl)-ethyl]-urea]: the Ki was determined as 0.115 µM.
On to `Cn1nnc(CCNC(=O)Nc2cn3cc(-c4cncc(C(F)(F)F)c4)ccc3n2)n1` [Example 1-38, 1-[2-(2-Methyl-2H-tetrazol-5-yl)-ethyl]-3-[6-(5-trifluoromethyl-pyridin-3-yl)-imidazo[1,2-a]pyridin-2-yl]-urea], for which the affinity, expressed as Ki, was 0.012 µM.
Still for that read-out and setting: to `CC(C)n1nnc(CCNC(=O)Nc2cn3cc(-c4ccncc4)ccc3n2)n1` [Example 1-2, 1-[2-(2-Isopropyl-2H-tetrazol-5-yl)-ethyl]-3-(6-pyridin-4-yl-imidazo[1,2-a]pyridin-2-yl)-urea] belongs 0.135 µM; to `CCn1nnc(CNC(=O)Nc2cn3cc(-c4cncc(C(F)(F)F)c4)ccc3n2)n1` [Example 1-21, 1-(2-Ethyl-2H-tetrazol-5-ylmethyl)-3-[6-(5-trifluoromethyl-pyridin-3-yl)-imidazo[1,2-a]pyridin-2-yl]urea], 0.014 µM; to `COc1cccc(-c2ccc3nc(NC(=O)NCCc4nnn(C(C)C)n4)cn3c2)c1` [Example 1-29, 1-[2-(2-Isopropyl-2H-tetrazol-5-yl)-ethyl]-3-[6-(3-methoxy-phenyl)-imidazo[1,2-a]pyridin-2-yl]-u], 1.03 µM.
`CC(C)n1nnc(CCNC(=O)Nc2cn3cc(-c4cncc(OC5CCOCC5)c4)ccc3n2)n1` [Example 1-13, 1-[2-(2-Isopropyl-2H-tetrazol-5-yl)-ethyl]-3-{6-[5-(tetrahydro-pyran-4-yloxy)-pyridin-3-yl}-imidazo[1,2-a]pyridin-2-yl]-urea] came in with a Ki of 0.147 µM.
As for `CCOc1cncc(-c2ccc3nc(NC(=O)NCCc4nnn(C(C)C)n4)cn3c2)c1` [Example 1-6, 1-[6-(5-Ethoxy-pyridin-3-yl)-imidazo[1,2-a]pyridin-2-yl]-3-[2-(2-isopropyl-2H-tetrazol-5-yl)-ethyl]-urea], the Ki came to 0.048 µM.
On the same count and under the same terms, as for “1-[2-(2-Isopropyl-2H-tetrazol-5-yl)-ethyl]-3-(6-quinolin-3-yl-imidazo[1,2-a]pyridin-2-yl)-urea [Example 1-49]”, the figure is 0.57 µM; as for `COc1ccc(-c2ccc3nc(NC(=O)NCCc4nnn(C(C)C)n4)cn3c2)cn1` [Example 1-19, 1-[2-(2-Isopropyl-2H-tetrazol-5-yl)-ethyl]-3-[6-(6-methoxy-pyridin-3-yl)-imidazo[1,2-a]pyridin-2-yl]-urea], 0.301 µM; as for `CCn1cnc(CCNC(=O)Nc2cn3cc(-c4cncc(C(F)(F)F)c4)ccc3n2)c1` [Example 1-23, 1-[2-(1-Ethyl-1H-imidazol-4-yl)-ethyl]-3-[6-(5-trifluoromethyl-pyridin-3-yl)-imidazo[1,2-a]pyridin-2-yl]-urea], 0.028 µM.
Same read-out and setting: to `CCn1nnc(CCNC(=O)Nc2cn3cc(-c4cncc5ccccc45)ccc3n2)n1` [Example 1-42, 1-[2-(2-Ethyl-2H-tetrazol-5-yl)-ethyl]-3-(6-isoquinolin-4-yl-imidazo[1,2-a]pyridin-2-yl)-urea] belongs 0.158 µM; to `CCn1nnc(CCNC(=O)Nc2cn3cc(-c4ccc5c(c4)OCO5)ccc3n2)n1` [Example 1-8, 1-(6-Benzo[1,3]dioxol-5-yl-imidazo[1,2-a]pyridin-2-yl)-3-[2-(2-ethyl-2H-tetrazol-5-yl)-ethyl]urea], 0.303 µM.

The same experiment, now with this note: Table 3, compounds of formula XI.
`O=C(NCCc1nnn(CCF)n1)Nc1nc2ccc(-c3cncc(C(F)(F)F)c3)cc2s1` [Example 2-8, 1-{2-[2-(2-Fluoro-ethyl)-2H-tetrazol-5-yl]-ethyl}-3-[6-(5-trifluoromethyl-pyridin-3-yl)-benzothiazol-2-yl]urea] registered an inhibition constant (Ki) of 0.016 µM.
On the same count and under the same terms, to `CCc1nnn(CCNC(=O)Nc2nc3ccc(-c4cncc(C(F)(F)F)c4)cc3s2)n1` [Example 2-11, 1-[2-(5-Ethyl-tetrazol-2-yl)-ethyl]-3-[6-(5-trifluoromethyl-pyridin-3-yl)-benzothiazol-2-yl]urea] belongs 0.242 µM; to `CCn1cnc(CCNC(=O)Nc2nc3ccc(-c4cncc(C(F)(F)F)c4)cc3s2)c1` [Example 2-12, 1-[2-(1-Ethyl-1H-imidazol-4-yl)-ethyl]-3-[6-(5-trifluoromethyl-pyridin-3-yl)-benzothiazol-2-yl]-urea], 0.142 µM; to `CC(C)n1nnc(CCNC(=O)Nc2nc3ccc(-c4cncc(C(F)(F)F)c4)cc3s2)n1` [Example 2-10, 1-[2-(2-Isopropyl-2H-tetrazol-5-yl)-ethyl]-3-[6-(5-trifluoromethyl-pyridin-3-yl)-benzothiazol-2-yl]urea], 0.092 µM.
Same read-out and setting: as for `O=C(NCCc1nnn(CCF)n1)Nc1nc2ccc(-c3cccnc3)cc2s1` [Example 2-1, 1-{2-[2-(2-Fluoro-ethyl)-2H-tetrazol-5-yl]-ethyl}-3-(6-pyridin-3-yl-benzothiazol-2-yl)-urea], the figure is 0.008 µM.
The same measure, in the same setting: to `COc1ccc(-c2ccc3nc(NC(=O)NCCc4nnn(CCF)n4)sc3c2)cn1` [Example 2-2, 1-{2-[2-(2-Fluoro-ethyl)-2H-tetrazol-5-yl]-ethyl}-3-[6-(6-methoxy-pyridin-3-yl)-benzothiazol-2-yl]-urea] belongs 0.02 µM.

Staying with this experiment, now noted: Table 4.
In the case of `CCn1nnc(CCNC(=O)Nc2cn3nc(-c4cccnc4)ccc3n2)n1` [Example 3-3, 1-[6-(pyridin-3-yl)-imidazo[1,2-b]pyridazin-2-yl]-3-[2-(2-ethyl-2H-tetrazol-5-yl)-ethyl]-urea], the Ki was found to be 0.031 µM.
On the same count and under the same terms, as for `CCn1nnc(CCNC(=O)Nc2cn3nc(-c4cncc(C(F)(F)F)c4)ccc3n2)n1` [Example 3-1, 1-[2-(2H-Ethyl-2H-tetrazole-5-yl)-ethyl]-3-[6-(5-trifluoromethyl-pyridin-3-yl)-imidazo[1,2-b]pyridazin-2-yl]-urea], the figure is 0.012 µM.
Turning to `CCn1nnc(CCNC(=O)Nc2cn3nc(-c4cnccc4C)ccc3n2)n1` [Example 3-18, 1-[2-(2-Ethyl-2H-tetrazol-5-yl)-ethyl]-3-[6-(4-methyl-pyridin-3-yl)-imidazo[1,2-b]pyridazin-2-yl]-urea], the affinity corresponds to a Ki of 0.248 µM.
Still for that read-out and setting: as for `CCn1nnc(CCNC(=O)Nc2nc3ccc(-c4cccnc4)cn3n2)n1` [Example 3-8, 1-[2-(2-Ethyl-2H-tetrazol-5-yl)-ethyl]-3-(6-pyridin-3-yl-[1,2,4]triazolo[1,5-a]pyridin-2-yl)-urea], the figure is 0.099 µM.
Consider `CCn1nnc(CCNC(=O)Nc2nc3ccc(-c4cncc(C(F)(F)F)c4)cn3n2)n1` [Example 3-7, 1-[2-(2-Ethyl-2H-tetrazol-5-yl)-ethyl]-3-[6-(5-trifluoromethyl-pyridin-3-yl)-[1,2,4]triazolo[1,5-a]pyridin-2-yl]-urea], for which the Ki is 0.376 µM.
Still for that read-out and setting: to `CCn1nnc(CCNC(=O)Nc2cn3nc(-c4cncc(C#N)c4)ccc3n2)n1` [Example 3-2, 1-[6-(5-Cyano-pyridin-3-yl)-imidazo[1,2-b]pyridazin-2-yl]-3-[2-(2-ethyl-2H-tetrazol-5-yl)-ethyl]-urea] belongs 0.031 µM.
